Experimental data reported in ChEMBL document CHEMBL1201862, “PubChem BioAssay data set” (2004).
Where “and” joins values, the source holds several entries; their conditions need not be identical. Identical values can stand only once.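 The compound was tested at five concentrations on cells cultured in 96-well plates, with a 48-hour exposure period. Abbreviation: GI50, concentration required for 50% inhibition of growth.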 Calls of active or inactive are those of the source. Rule as the data show it: active = GI50 up to about 1.1 µM and inactive = higher.

Legend:
Assay in all cases: NCI tumour cell line growth inhibition, 48 h
HOP-62 = system: HOP-62
CCRF-CEM = system: CCRF-CEM
SNB-75 = system: SNB-75
OVCAR-8 = system: OVCAR-8
OVCAR-3 = system: OVCAR-3
SF-539 = system: SF-539
TK-10 = system: TK-10
K562 = system: K562
HOP-92 = system: HOP-92
SK-MEL-28 = system: SK-MEL-28
OVCAR-5 = system: OVCAR-5
SK-OV-3 = system: SK-OV-3
HCC 2998 = system: HCC 2998
786-0 = system: 786-0
SNB-19 = system: SNB-19
SF-268 = system: SF-268
M14 = system: M14
UACC-62 = system: UACC-62
RXF 393 = system: RXF 393

Measured: GI50

COc1ccccc1NC(=O)C1=C(C)NC(C)=C(C(=O)Nc2ccccc2OC)C1C1=CC=COC1
inactive: HOP-62 27.5 µM | CCRF-CEM 7.87 µM | SNB-75 23 µM | OVCAR-8 14.6 µM | OVCAR-3 3.11 µM | SF-539 12.2 µM | TK-10 16.5 µM | K562 3.78 µM | HOP-92 25.9 µM | SK-MEL-28 18.8 µM | OVCAR-5 36.4 µM | SK-OV-3 10.4 µM | HCC 2998 12.3 µM | 786-0 11.5 µM | SNB-19 19.1 µM | SF-268 13.6 µM | M14 5.2 µM | UACC-62 3.3 µM

O=C1c2ccccc2C2(O)N(c3ccccc3)C(=S)N(c3ccccc3)C12O (centres undefined)
inactive: RXF 393 > 100 µM | HOP-62 > 100 µM | CCRF-CEM > 100 µM | SNB-75 > 100 µM | OVCAR-8 > 100 µM | OVCAR-3 > 100 µM | SF-539 > 100 µM | TK-10 > 100 µM | K562 > 100 µM | SK-MEL-28 > 100 µM | OVCAR-5 > 100 µM | SK-OV-3 > 100 µM | HCC 2998 > 100 µM | 786-0 > 100 µM | SNB-19 > 100 µM | SF-268 > 100 µM | M14 > 100 µM | UACC-62 > 100 µM

O=C(O)C12C3CCC(O3)C1(C(=O)O)C1CCC2O1 (centres undefined)
inactive: RXF 393 > 100 µM and 53.6 µM | HOP-62 > 100 µM | CCRF-CEM > 100 µM | SNB-75 > 100 µM | OVCAR-8 > 100 µM | OVCAR-3 > 100 µM | SF-539 > 100 µM | TK-10 > 100 µM | K562 > 100 µM | SK-MEL-28 > 100 µM | OVCAR-5 > 100 µM | SK-OV-3 > 100 µM | HCC 2998 > 100 µM | 786-0 > 100 µM | SNB-19 > 100 µM | SF-268 > 100 µM | UACC-62 > 100 µM

Cc1ccc(S(=O)(=O)N/N=C(/CC(=O)c2c(C)[n+]([O-])c3ccccc3[n+]2[O-])C(=O)Nc2ccc(C)c(C)c2)cc1
inactive: RXF 393 > 100 µM | HOP-62 > 100 µM | SNB-75 > 100 µM | OVCAR-3 16.5 µM | SF-539 > 100 µM | SK-MEL-28 > 100 µM | OVCAR-5 88.7 µM | SK-OV-3 > 100 µM | HCC 2998 90.4 µM | 786-0 > 100 µM | SNB-19 > 100 µM | SF-268 > 100 µM | M14 > 100 µM | UACC-62 79.8 µM

N#C/C(=C/c1ccc2c(c1)OCO2)C(=O)c1ccccc1
inactive: HOP-62 > 100 µM | CCRF-CEM > 100 µM | SNB-75 > 100 µM | OVCAR-8 > 100 µM | OVCAR-3 > 100 µM | SF-539 > 100 µM | TK-10 > 100 µM | K562 > 100 µM | SK-MEL-28 > 100 µM | OVCAR-5 > 100 µM | SK-OV-3 > 100 µM | HCC 2998 > 100 µM | 786-0 > 100 µM | SNB-19 > 100 µM | SF-268 > 100 µM | M14 > 100 µM | UACC-62 > 100 µM

C=C1C(=O)C23CC1CCC2C12CO[C@H](O)[C@H]1C(C)(C)[C@H](OC(C)=O)C[C@H]2OC3=O (some centres undefined)
inactive: CCRF-CEM 6.14 µM | SNB-75 46.2 µM | OVCAR-8 30.6 µM | OVCAR-3 22.5 µM | SF-539 20 µM | TK-10 14.3 µM | K562 5.9 µM | HOP-92 10.1 µM | SK-MEL-28 17.1 µM | OVCAR-5 18.8 µM | SK-OV-3 > 100 µM | HCC 2998 22.6 µM | 786-0 16 µM | SNB-19 > 100 µM | SF-268 14.7 µM | M14 25.4 µM | UACC-62 15 µM

CC(=O)OC[C@H]1CN(OC(C)=O)C[C@@H](n2cc(C)c(=O)[nH]c2=O)O1
inactive: RXF 393 > 100 µM | HOP-62 > 100 µM | SNB-75 61.5 µM | OVCAR-8 > 100 µM | SF-539 > 100 µM | TK-10 > 100 µM | K562 > 100 µM | SK-MEL-28 > 100 µM | OVCAR-5 > 100 µM | SK-OV-3 > 100 µM | HCC 2998 > 100 µM | 786-0 > 100 µM | SNB-19 > 100 µM | SF-268 > 100 µM | M14 > 100 µM | UACC-62 > 100 µM

CC1(c2cccc(C3CC4(CCC3=O)OCCCCO4)c2)OCCO1 (centres undefined)
inactive: HOP-62 > 100 µM | CCRF-CEM > 100 µM | SNB-75 92.7 µM | OVCAR-8 > 100 µM | OVCAR-3 > 100 µM | SF-539 > 100 µM | TK-10 > 100 µM | K562 > 100 µM | SK-MEL-28 > 100 µM | OVCAR-5 > 100 µM | SK-OV-3 > 100 µM | HCC 2998 > 100 µM | 786-0 > 100 µM | SNB-19 > 100 µM | SF-268 > 100 µM | M14 > 100 µM | UACC-62 > 100 µM
